Data as given in ChEMBL document CHEMBL4732091, “Design, synthesis and biological evaluation of novel thiosemicarbazone-indole derivatives targeting prostate cancer cells” (Eur J Med Chem, 2021).
Active and inactive are the calls of the source. The calls are words filed in the database; no cut-off is given here.

Tests used:
MCF7 = assay: Antiproliferative activity against human MCF7 cell line cells assessed as inhibition of cell proliferation measured after 72 hrs by MTT assay; format: functional, cell-based; conditions: MCF7, 72 h
PC-3 [1] = assay: Antiproliferative activity against human PC-3 cells assessed as reduction in colony formation at 12.5 to 50 nM measured after 6 days by crystal violet staining based colony assay; format: functional, cell-based; conditions: dose 12.5-50 nM, time 6.0 day
DU-145 [2] = assay: Induction of cell cycle arrest in human DU-145 cells assessed as accumulation at G1/S phase measured after 48 hrs by PI staining based Flowcytometry method; format: functional; conditions: dose 1.5-6 µM
DU-145 [3] = assay: Cell cycle arrest in human DU-145 cells assessed as accumulation of cells in G1/S phase by measuring upregulation of p27 measured after 48 hrs by Western blot assay; format: functional, cell-based; conditions: dose 1.5-6 µM
PC-3 [4] = assay: Induction of apoptosis in human PC-3 cells assessed as cell rounding at 25 to 100 nM measured after 72 hrs by Hoechst staining based fluorescence microscope method; format: functional; conditions: dose 25-100 nM
PC-3 [5] = assay: Induction of apoptosis in human PC-3 cells assessed as late apoptotic cells at 25 nM measured after 72 hrs by Annexin V-FITC/propidium iodide staining based flow cytometry method (reference value: 1.01 %); format: functional
PC-3 [6] = assay: Induction of apoptosis in human PC-3 cells assessed as viable cells at 50 nM measured after 72 hrs by Annexin V-FITC/propidium iodide staining based flow cytometry method (reference value: 97.2 %); format: functional; conditions: read-out: Activity
DU-145 [7] = assay: Induction of apoptosis in human DU-145 cells assessed as early apoptotic cells at 0.5 uM measured after 72 hrs by Annexin V-FITC/propidium iodide staining based flow cytometry method (reference value: 0.835 %); format: functional
DU-145 [8] = assay: Induction of apoptosis in human DU-145 cells assessed as late apoptotic cells at 0.5 uM measured after 72 hrs by Annexin V-FITC/propidium iodide staining based flow cytometry method (reference value: 1.77 %); format: functional
PC-3 [9] = assay: Induction of apoptosis in human PC-3 cells assessed as reduction in Bcl-2 expression at 25 to 100 nM measured by Western blot assay; format: functional, cell-based; conditions: dose 25-100 nM
PC-3 [10] = assay: Induction of apoptosis in human PC-3 cells assessed as increase in PARP expression at 25 to 100 nM measured by Western blot assay; format: functional, cell-based; conditions: dose 25-100 nM
PC-3 [11] = assay: Induction of apoptosis in human PC-3 cells assessed as increase in p53 expression at 25 to 100 nM measured by Western blot assay; format: functional, cell-based; conditions: dose 25-100 nM
DU-145 [12] = assay: Induction of ROS generation in human DU-145 cells assessed as increase in intracellular ROS level at 250 nM pretreated with NAC followed by compound treatment measured after 48 hrs by DCFH-DA staining based flowcytometry method; format: functional, cell-based
PC-3 [13] = assay: Cytotoxicity against human PC-3 cells assessed as cell viability pre-treated with SB203580 for 4 hrs followed by compound treatment and measured after 72 hrs by MTT assay; format: functional, cell-based
[14] = Toxicity in C57BL/6 mouse assessed as effect on lung at 2 mg/kg, IG measured after 2 weeks by hematoxylin and eosin staining based imaging analysis; format: organism-based; conditions: in vivo, po, 336 h
DU-145 [15] = assay: Antiproliferative activity against human DU-145 cells assessed as inhibition of cell proliferation at 0.156 to 20 uM by MTT assay; format: functional, cell-based; conditions: dose 0.156-20 µM, time 24-72 hrs, TDE = time-dependent effect
PC-3 [16] = assay: Induction of apoptosis in human PC-3 cells assessed as nuclear fragmentation at 25 to 100 nM measured after 72 hrs by Hoechst staining based fluorescence microscope method; format: functional, cell-based; conditions: dose 25-100 nM
DU-145 [17] = assay: Induction of apoptosis in human DU-145 cells assessed as formation of apoptotic bodies at 0.5 to 2 uM measured after 72 hrs by Hoechst staining based fluorescence method; format: functional, cell-based; conditions: dose 0.5-2 µM
DU-145 [18] = assay: Induction of ROS generation in human DU-145 cells assessed as intracellular ROS level at 3 uM measured after 48 hrs by DCFH-DA staining based flowcytometry method (reference value: 52 %); format: functional
PC-3 [19] = assay: Induction of ROS generation in human PC-3 cells assessed as intracellular ROS level at 250 nM pretreated with NAC followed by compound treatment measured after 48 hrs by DCFH-DA staining based flowcytometry method (reference value: 49.9 %); format: functional

IC50 (MCF7): 5.33 µM
Structure (SMILES): Cc1ccc(/C=N/NC(=S)Nc2ccc(C(=O)NCCc3c(C)[nH]c4ccccc34)cc2)nc1
inhibition (PC-3 [1]): Active
Activity (DU-145 [2]): Dose-dependent effect
Activity (DU-145 [3]): Active
Activity (PC-3 [4]): Active
Activity (PC-3 [5]): 4.36%
viability at 0.05 µM (PC-3 [6]): 64%
Activity (DU-145 [7]): 0.41%
Activity (DU-145 [8]): 3.78%
Activity (PC-3 [9]): Active
Activity (PC-3 [10]): Active
Activity (PC-3 [11]): Active
Activity (DU-145 [12]): inactive
inhibition (PC-3 [13]): inactive
Activity [14]: Non-Toxic
Activity (DU-145 [15]): Tde
Activity (PC-3 [16]): Active
Activity (DU-145 [17]): Active
Activity (DU-145 [18]): 75.1%
Activity (PC-3 [19]): 74.5%
